In patent US20250223277A1, “COMPLEMENT FACTOR B INHIBITORS AND USES THEREOF” (Novartis AG, priority 2022, published 2025):

Molecular target: Recombinant human factor B (Homo sapiens (Human), UniProt P00751)
Assay: Human Complement Factor B TR-FRET Assay
Format: binding
Details: assay of Biological Example 2; read-out: hFactor-B TR-FRET Qualified IC50
Procedure: The time-gated decrease in fluorescence intensity related to the competition between labeled and unlabeled factor B ligands was recorded at both 620 nm and 665 nm, 70 us after excitation at 337 nm using a microplate spectrofluorimeter.

Chain of Recombinant human factor B (P00751 26-764): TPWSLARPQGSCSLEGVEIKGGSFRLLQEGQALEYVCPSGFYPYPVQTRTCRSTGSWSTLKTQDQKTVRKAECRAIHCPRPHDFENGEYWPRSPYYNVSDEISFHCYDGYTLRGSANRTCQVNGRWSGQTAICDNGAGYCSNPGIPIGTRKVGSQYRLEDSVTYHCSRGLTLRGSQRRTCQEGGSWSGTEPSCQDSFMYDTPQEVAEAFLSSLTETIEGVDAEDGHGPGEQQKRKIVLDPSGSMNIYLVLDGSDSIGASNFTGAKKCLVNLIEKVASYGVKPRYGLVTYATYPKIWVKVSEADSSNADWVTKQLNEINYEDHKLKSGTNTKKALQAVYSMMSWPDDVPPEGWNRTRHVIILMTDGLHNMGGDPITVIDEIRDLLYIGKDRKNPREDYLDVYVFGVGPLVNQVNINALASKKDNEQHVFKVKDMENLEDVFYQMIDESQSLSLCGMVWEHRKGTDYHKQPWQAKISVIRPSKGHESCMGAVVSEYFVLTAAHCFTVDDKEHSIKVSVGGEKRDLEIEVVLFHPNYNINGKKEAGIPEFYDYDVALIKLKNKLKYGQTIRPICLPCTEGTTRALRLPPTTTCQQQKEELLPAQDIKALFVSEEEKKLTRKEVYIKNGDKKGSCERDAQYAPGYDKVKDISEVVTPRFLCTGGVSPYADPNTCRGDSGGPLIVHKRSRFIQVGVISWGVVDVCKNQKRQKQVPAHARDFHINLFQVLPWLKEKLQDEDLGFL

SMILES | IC50
COCCN1CC[C@@H](Cc2c(C)cc(C)c3[nH]ccc23)[C@H](c2ccc(C(=O)O)cc2)C1 [Ex-14, 4-((3R,4R)-4-((5,7-dimethyl-1H-indol-4-yl)methyl)-1-(2-methoxyethyl)piperidin-3-yl)benzoic acid] | < 100 nM
Cc1cc(C)c2[nH]ccc2c1C[C@@H]1CCN(CCC(F)F)C[C@H]1c1ccc(-n2cccn2)cc1 [Ex-48, 4-(((3R,4R)-3-(4-(1H-pyrazol-1-yl)phenyl)-1-(3,3-difluoropropyl)piperidin-4-yl)methyl)-5,7-dimethyl-1H-indole] | < 100 nM
CCN1CC[C@@H](Cc2c(C)cc(C)c3[nH]ccc23)[C@H](c2ccc(C(=O)O)cc2)C1 [Ex-10, 4-((3R,4R)-4-((5,7-dimethyl-1H-indol-4-yl)methyl)-1-ethylpiperidin-3-yl)benzoic acid] | < 100 nM
CN1CC[C@@H](Cc2c(Cl)cc(Cl)c3[nH]ccc23)[C@H](c2ccc(C(=O)O)cc2)C1 [Ex-37, 4-((3R,4R)-4-((5,7-dichloro-1H-indol-4-yl)methyl)-1-methylpiperidin-3-yl)benzoic acid] | < 100 nM
CCN1C[C@@H](Cc2c(C3CC3)cc(C)c3[nH]ccc23)[C@H](c2ccc(-c3nnn[nH]3)cc2)C1 (racemic) [Ex-61, 4-((4-(4-(1H-tetrazol-5-yl)phenyl)-1-ethylpyrrolidin-3-yl)methyl)-5-cyclopropyl-7-methyl-1H-indole] | < 100 nM
Cc1cc(C)c2[nH]ccc2c1C[C@@H]1CCN(CCF)C[C@H]1c1ccc(C(=O)O)cc1 [Ex-12, 4-((3R,4R)-4-((5,7-dimethyl-1H-indol-4-yl)methyl)-1-(2-fluoroethyl)piperidin-3-yl)benzoic acid] | < 100 nM
Cc1cc(C)c2[nH]ccc2c1C[C@@H]1CN(C)C[C@H]1c1ccc(C(N)=O)cc1 (racemic) [Ex-58, Racemic 4-((3R*,4S*)-4-((5,7-dimethyl-1H-indol-4-yl)methyl)-1-methylpyrrolidin-3-yl)benzamide] | < 30000 nM
Cc1cc(Cl)c(C[C@@H]2CCN(C)C[C@H]2c2ccc(C(=O)O)cc2)c2cc[nH]c12 [Ex-36, 4-((3R,4R)-4-((5-chloro-7-methyl-1H-indol-4-yl)methyl)-1-methylpiperidin-3-yl)benzoic acid] | < 100 nM
Cc1cc(C)c2[nH]ccc2c1C[C@@H]1CCN(C2COC2)C[C@H]1c1ccc(C(=O)O)cc1 [Ex-21, 4-((3R,4R)-4-((5,7-dimethyl-1H-indol-4-yl)methyl)-1-(oxetan-3-yl)piperidin-3-yl)benzoic acid] | < 1000 nM
Cc1cc(C)c2[nH]ccc2c1C[C@@H]1CCN(CC(F)(F)F)C[C@H]1c1ccc(C(=O)O)cc1 [Ex-1, 4-((3R,4R)-4-((5,7-dimethyl-1H-indol-4-yl)methyl)-1-(2,2,2-trifluoroethyl)piperidin-3-yl)benzoic acid] | < 100 nM
Cc1cc(C)c2[nH]ccc2c1C[C@@H]1CCN(CC(C)(C)O)C[C@H]1c1ccc(C(=O)O)cc1 [Ex-15, 4-((3R,4R)-4-((5,7-dimethyl-1H-indol-4-yl)methyl)-1-(2-hydroxy-2-methylpropyl)piperidin-3-yl)benzoic acid] | < 1000 nM
Cc1ccc(C[C@@H]2CCN(C)C[C@H]2c2ccc(C(=O)O)cc2)c2cc[nH]c12 [Ex-33, 4-((3R,4R)-1-methyl-4-((7-methyl-1H-indol-4-yl)methyl)piperidin-3-yl)benzoic acid] | < 100 nM
Cc1cc(C)c2[nH]ccc2c1C[C@@H]1CCN(C)CC[C@H]1c1ccc(C(=O)O)cc1 [Ex-30, 4-((4R,5R)-5-((5,7-dimethyl-1H-indol-4-yl)methyl)-1-methylazepan-4-yl)benzoic acid] | < 100 nM
Cc1cc(C)c2[nH]ccc2c1C[C@@H]1CN(C)C[C@H]1c1ccc(-c2nnn[nH]2)cc1 [Ex-60, 4-(((3S,4R)-4-(4-(2H-tetrazol-5-yl)phenyl)-1-methylpyrrolidin-3-yl)methyl)-5,7-dimethyl-1H-indole] | < 100 nM
Cc1cc(C)c2[nH]ccc2c1C[C@@H]1CCN(CC(F)(F)F)C[C@H]1c1ccc(C#N)cc1 [Ex-45, 4-((3R,4R)-4-((5,7-dimethyl-1H-indol-4-yl)methyl)-1-(2,2,2-trifluoroethyl)piperidin-3-yl)benzonitrile] | < 30000 nM
Cc1cc(C2CC2)c(C[C@@H]2CCN(CC(F)(F)F)C[C@H]2c2ccc(C(=O)O)cc2)c2cc[nH]c12 [Ex-3, 4-((3R,4R)-4-((5-cyclopropyl-7-methyl-1H-indol-4-yl)methyl)-1-(2,2,2-trifluoroethyl)piperidin-3-yl)benzoic acid] | < 100 nM
Cc1cc(Cl)c2[nH]ccc2c1C[C@@H]1CCN(C)C[C@H]1c1ccc(C(=O)O)cc1 [Ex-38, 4-((3R,4R)-4-((7-chloro-5-methyl-1H-indol-4-yl)methyl)-1-methylpiperidin-3-yl)benzoic acid] | < 100 nM
Cc1cc(C)c2[nH]ccc2c1C[C@@H]1CCN(CC2(F)COC2)C[C@H]1c1ccc(-n2cccn2)cc1 [Ex-49, 4-(((3R,4R)-3-(4-(1H-pyrazol-1-yl)phenyl)-1-((3-fluorooxetan-3-yl)methyl)piperidin-4-yl)methyl)-5,7-dimethyl-1H-indole] | < 100 nM
Cc1cc(C)c2[nH]ccc2c1C[C@@H]1CCN(CC(F)(F)F)C[C@H]1c1ccc(-n2cccn2)cc1 [Ex-47, 4-(((3R,4R)-3-(4-(1H-pyrazol-1-yl)phenyl)-1-(2,2,2-trifluoroethyl)piperidin-4-yl)methyl)-5,7-dimethyl-1H-indole] | < 1000 nM

SMILES | IC50
Cc1cc(F)c(C[C@@H]2CCN(C)C[C@H]2c2ccc(C(=O)O)cc2)c2cc[nH]c12 [Ex-35, 4-((3R,4R)-4-((5-fluoro-7-methyl-1H-indol-4-yl)methyl)-1-methylpiperidin-3-yl)benzoic acid] | < 100 nM
Cc1cc(C)c2[nH]ccc2c1C[C@@H]1CCCN(C)C[C@H]1c1ccc(C(=O)O)cc1 [Ex-27, 4-((3R,4S)-4-((5,7-dimethyl-1H-indol-4-yl)methyl)-1-methylazepan-3-yl)benzoic acid] | < 100 nM
CCN1CCC[C@@H](Cc2c(C)cc(C)c3[nH]ccc23)[C@H](c2ccc(C(=O)O)cc2)C1 [Ex-29, 4-((3R,4S)-4-((5,7-dimethyl-1H-indol-4-yl)methyl)-1-ethylazepan-3-yl)benzoic acid] | < 100 nM
COc1cc(C)c2[nH]ccc2c1C[C@@H]1CCN(CC(F)(F)F)C[C@H]1c1ccc(C(=O)O)cc1 [Ex-5, 4-((3R,4R)-4-((5-methoxy-7-methyl-1H-indol-4-yl)methyl)-1-(2,2,2-trifluoroethyl)piperidin-3-yl)benzoic acid] | < 1000 nM
COc1cc(C)c2[nH]ccc2c1C[C@H]1CCN(CC(F)(F)F)C[C@@H]1c1ccc(C(=O)O)cc1 [Ex-6] | < 30000 nM
Cc1cc(C)c2[nH]cc(Cl)c2c1C[C@@H]1CCN(C)C[C@H]1c1ccc(C(=O)O)cc1 [Ex-39, 4-((3R,4R)-4-((3-chloro-5,7-dimethyl-1H-indol-4-yl)methyl)-1-methylpiperidin-3-yl)benzoic acid] | < 100 nM
Cc1cc(C)c2[nH]ccc2c1C[C@@H]1CN(CC(F)(F)F)C[C@H]1c1ccc(C(=O)O)cc1 (racemic) [Ex-26, 4-(4-((5,7-dimethyl-1H-indol-4-yl)methyl)-1-(2,2,2-trifluoroethyl)pyrrolidin-3-yl)benzoic acid] | < 30000 nM
Cc1cc(C)c2[nH]ccc2c1C[C@@H]1CCN([C@H]2C[C@H](F)C2)C[C@H]1c1ccc(C(=O)O)cc1 [Ex-22, 4-((3R,4R)-4-((5,7-dimethyl-1H-indol-4-yl)methyl)-1-((1r,3R)-3-fluorocyclobutyl)piperidin-3-yl)benzoic acid] | < 100 nM
Cc1cc(C)c2[nH]ccc2c1C[C@@H]1CCN(C)C[C@H]1c1ccc(-n2cccn2)cc1 [Ex-46, 4-(((3R,4R)-3-(4-(1H-pyrazol-1-yl)phenyl)-1-methylpiperidin-4-yl)methyl)-5,7-dimethyl-1H-indole] | < 100 nM
CCCN1CC[C@@H](Cc2c(C)cc(C)c3[nH]ccc23)[C@H](c2ccc(C(=O)O)cc2)C1 [Ex-20, 4-((3R,4R)-4-((5,7-dimethyl-1H-indol-4-yl)methyl)-1-propylpiperidin-3-yl)benzoic acid] | < 100 nM
Cc1cc(C)c2[nH]ccc2c1C[C@H]1CCN(CC(F)(F)F)C[C@@H]1c1ccc(C(=O)O)cc1 [Ex-2, 4-((3S,4S)-4-((5,7-dimethyl-1H-indol-4-yl)methyl)-1-(2,2,2-trifluoro-ethyl)piperidin-3-yl)benzoic acid] | < 30000 nM
Cc1cc(C)c2[nH]ccc2c1C[C@@H]1CCN(CC2(F)COC2)C[C@H]1c1ccc(C(=O)O)cc1 [Ex-17, 4-((3R,4R)-4-((5,7-dimethyl-1H-indol-4-yl)methyl)-1-((3-fluorooxetan-3-yl)methyl)piperidin-3-yl)benzoic acid] | < 100 nM
Cc1cc(C)c2[nH]ccc2c1C[C@@H]1CCN(C)C[C@H]1c1ccc(C(=O)O)cc1 [Ex-8, 4-((3R,4R)-4-((5,7-dimethyl-1H-indol-4-yl)methyl)-1-methylpiperidin-3-yl)benzoic acid] | < 100 nM
Cc1cc(C2CC2)c(C[C@H]2CCN(CC(F)(F)F)C[C@@H]2c2ccc(C(=O)O)cc2)c2cc[nH]c12 [Ex-4] | < 30000 nM
Cc1cc(C)c2[nH]ccc2c1C[C@@H]1CCN(CC(F)(F)F)C[C@H]1c1ccc(-c2nnn[nH]2)cc1 [Ex-43, 4-(((3R,4R)-3-(4-(1H-tetrazol-5-yl)phenyl)-1-(2,2,2-trifluoroethyl)piperidin-4-yl)methyl)-5,7-dimethyl-1H-indole] | < 100 nM
Cc1cc(C)c2[nH]ccc2c1C[C@@H]1CCN(CCC(F)F)CC[C@H]1c1ccc(C(=O)O)cc1 [Ex-32, 4-((4R,5R)-1-(3,3-difluoropropyl)-5-((5,7-dimethyl-1H-indol-4-yl)methyl)azepan-4-yl)benzoic acid] | < 1000 nM
Cc1cc(C)c2[nH]ccc2c1C[C@@H]1CCN(C2COC2)C[C@H]1c1ccc(-n2cccn2)cc1 [Ex-50, 4-(((3R,4R)-3-(4-(1H-pyrazol-1-yl)phenyl)-1-(oxetan-3-yl)piperidin-4-yl)methyl)-5,7-dimethyl-1H-indole] | < 1000 nM
Cc1cc(C)c2[nH]ccc2c1C[C@@H]1CCN(CCC(F)F)C[C@H]1c1ccc(C(=O)O)cc1 [Ex-23, 4-((3R,4R)-1-(3,3-difluoropropyl)-4-((5,7-dimethyl-1H-indol-4-yl)methyl)piperidin-3-yl)benzoic acid] | < 100 nM
